Data on three molecules can be found in PMC8400920, “Metabolism of Diterpenoids Derived from the Bark of Cinnamomum cassia in Human Liver Microsomes” (Pharmaceutics, 2021).

Structures can show the parent of a compound that is named as a salt.

Data set [1] concerns human liver microsomes (HLMs). Nature of the data set: Metabolic stability of seven diterpenoids in human liver microsomes. The format is in vitro ADME. The settings on record: 10 µM, 0.5 mg/mL HLMs, NGS, 37 °C. Here is the method:
For metabolism profiling, 10 µM of each of the seven compounds isolated from C. cassia bark was added to 0.5 mg/mL of pooled HLMs and 0.1 M potassium phosphate buffer (pH 7.4). The HLMs were then preincubated at 37 °C for 1 min. After adding NGS, the reaction mixture was incubated at 37 °C for 60 min. After the 60 min incubation period, 50 µL of the reaction mixture was transferred to a new tube, and 50 µL of 100% ACN containing 0.1% formic acid and tolbutamide (internal standard) was added to terminate the reaction. The mixture was then vortexed, followed by centrifugation at 15,700× g (13,000 rpm) for 10 min (Eppendorf AG, Hamburg, Germany). Finally, 90 µL of the supernatant was transferred to a vial and injected into a C18 column for LC–MS/MS analysis.
The metabolism screening of the seven compounds was performed using an HPLC system (Thermo Fisher Scientific, Bremen, Germany) equipped with an HPG-3200SD standard binary pump, a WPS-3000 TRS analytical autosampler, and a TCC-3000 SD column compartment. The HPLC system was coupled with an HR-MS (Q-Exactive Focus Quadrupole-Orbitrap MS; Thermo Fisher Scientific, Waltham, MA, USA) at the Mass Spectrometry Convergence Research Center. The full MS resolution and scan ranges were 70,000 and 60–900 m/z, respectively. The MS/MS resolution was 35,000. The mass spectra were obtained in negative ion electrospray mode. A heated electrospray ionization (HESI-II) probe was used as an ion generator, with nitrogen as the sheath gas at 35 aux units and auxiliary gas at 12 aux units. The mass spectrometer was operated in negative ionization mode. The other parameters were as follows: spray voltage, 3.5 kV; capillary temperature, 320 °C; S-lens radio frequency level, 50; and aux gas heater temperature, 400 °C.
The mobile phase consisted of 100% water with 0.1% formic acid (mobile phase A) and 100% ACN with 0.1% formic acid (mobile phase B). For metabolic stability, the gradient conditions were set as follows: 5% of B at 0.5–2.0 min, 5–50% of B at 2.0–4.5 min, 50% of B at 4.5–7.0 min, and 50–5% of B at 7.0–10.0 min at 40 °C with a flow rate of 0.2 mL/min. For metabolite identification, the gradient conditions were as follows: 10% of B at 0–5 min, 10–55% of B at 5–15 min, 55% of B at 15–23 min, and 55–10% of B at 23–30 min with a flow rate of 0.25 mL/min. Chromatographic separation was performed using a Kinetex C18 column (150 × 2.1 mm, 2.6 μm, XB-C18 100 Å, S/No: H19-070128; Phenomenex, Torrance, CA, USA). Data were analyzed using Xcalibur version 4.0 software (Thermo Fisher Scientific, Waltham, MA, USA).
To confirm their metabolic stability, seven diterpenoids (AHC, anhydrocinnzeylanol, cinncassiol A, cinncassiol B, cinnzeylanol, cinnzeylanone, and cinnzeylanine) derived from the bark of C. cassia were incubated with HLMs in the presence of the NGS for 60 min (Figure 1B). The metabolic stability of each compound was determined according to the ratio of the peak area at 60 min to that at 0 min. […] Therefore, we identified the metabolites of AHC produced in HLMs.
(In general: Liver microsomes are a subcellular fraction often used to study metabolism.)

Data set [2] has as its system CYPs. The data set can be described thus: Metabolism of AHC in HLMs with SKF-525A, a nonselective CYP inhibitor. The format is in vitro ADME, human. The settings on record: 10 µM AHC, 1 mg/mL HLMs, NGS, 60 min. Here is the method:
To investigate CYP-mediated metabolism, 10 µM AHC was mixed with 1 mg/mL pooled HLMs and 0.1 M potassium phosphate buffer (pH 7.4). Then, SKF-525A, a general inhibitor of CYPs, was added at concentrations of 0.5, 1, and 5 mM. The reactions were initiated with the addition of NGS at […] for 60 min. After 60 min, the reactions were terminated by adding 400 µL of 100% acetonitrile. The mixtures were then centrifuged at 15,700× g for 10 min. Subsequently, 550 µL of supernatant was dried in a vacuum concentrator. The residue was dissolved in 100 µL of 20% MeOH (0.1% formic acid), and 5 µL of this sample was injected into a C18 column for LC–MS/MS analysis.
To confirm the metabolism of AHC by CYP enzymes, AHC was incubated in HLMs with SKF-525A, i.e., a nonspecific CYP inhibitor (Figure S7). […] Consequently, as the metabolism of AHC was inhibited by SKF-525A treatment, the production of all metabolites was reduced in an SKF-525A concentration-dependent manner.

Turning to `CC1CCC2(O)C3(C)CC4(O)OC2(C1=O)C1(O)C3(O)CC(O)(C(C)C)C41C` (stereo not shown) [cinnzeylanone], the “decrease of stability in HLMs (peak area 60 min vs 0 min)” value in data set [1] was “approximately 20%”. `CCCC(C(=O)OCCN(CC)CC)(c1ccccc1)c1ccccc1` [SKF-525A, proadifen hydrochloride, reference compound]: the “effect of SKF-525A on the metabolism of AHC in HLMs” value in data set [2] is given as “inhibited”. As to `CC1=C(C(C)C)C[C@@]2(O)[C@@]3(C)CC(=O)O[C@@]4([C@H](O)[C@@H](C)CC[C@]34O)[C@@]12O` [anhydrocinnzeylanol], the “decrease of stability in HLMs (peak area 60 min vs 0 min)” value in data set [1] is listed as “approximately 20%”. For the same molecule, the “fraction metabolized in HLMs (metabolized by)” value in data set [1] (60 min) came out at 20%.
